{
  "source": "patent US11077138B2",
  "about": "“Methods of tissue repair and regeneration” (INNOLIFE CO., LTD., priority 2015, dated 2021)",
  "key": {"[1]": {"test_system": "BMSCs homing (SDF-1/CXCR4 axis)", "test": "Tracking of homing of labeled autologous BMSCs to the infarcted rabbit heart", "type": "in vivo, New Zealand white rabbits", "conditions": "BMSCs incubated overnight with AMD3100", "description": "(1) Adult male New Zealand white rabbits were preoperative fasted for 12 hours, and the operation room was sterilized by overnight ultraviolet radiation before the surgery. (2) Rabbits were anesthetized with 3 ml/kg chloral hydrate by intraperitoneal administration, and then placed on the operation table in the supine position. Hairs covering chest and limbs at electrode attachment site were shaved. The surgical area was scrubbed with povidone-iodine for 3 consecutive times. Lidocaine was injected into the subcutaneous area around the incision site. (3) Electrodes were attached to the limbs and ECG (electrocardiogram) was recorded 30 minutes before and after the surgery. (4) The rabbits were subjected to a median sternotomy. The skin was cut and the s.c. tissue and the muscular was dissected. Afterwards, the sternum was retracted and the pleuron was dissected, the pleural space was opened and so the pericardium was exposed. (5) After gently incision of the pericardium, the heart was exposed and the left circumflex branch (LC) was ligated. […] (6) Color changes of the anterior ventricular wall, the difference of left ventricular wall motion, and alterations including ST segment recorded by electrodes II, III, and aVF in ECG was monitored for 2 minutes to ensure that the ligation was successful. […]"}, "VEGF": {"test_system": "VEGF", "test": "Western blotting analysis of VEGF in isolated rat aortic rings", "type": "cell-based, Sprague Dawley rats", "conditions": "for production of VEGF (protein level): 8 days", "description": "Protein extracts were obtained after lysing rat aortic rings with matrigel in the radio immunoprecipitation assay (RIPA) lysis buffer (Beyotime, Jiangsu, CN) containing 1% complete ethylene diamine tetraacetic acid (EDTA)-free protease inhibitor cocktail (Roche, Mannhein, DE) for 30 min on ice. Equal loading of protein was assured by prior quantitation using a bicinchoninic acid (BCA) protein assay kit (Thermo, Rockford, USA). An appropriate amount of protein in total lysates was resolved in a sodium dodecyl sulfate (SDS)-polyacrylamide electrophoresis gel and transferred onto a polyvinylidene difluoride membrane (Bio-rad, USA). Membranes were blocked for 1 h in Tris-buffered saline/Tween 20 (TBST) (10 mM Tris.HCl, pH 8.0, 150 mM NaCl and 0.1% Tween 20) containing 5% nonfat dry milk and incubated overnight at 4° C. with the primary mouse anti-VEGF antibody (Santa Cruz, Calif., USA) and mouse antibeta actin antibody (ZSGB-BIO, Beijing, CN) diluted in the blocking buffer. After washing with TBST, the membranes were incubated with a horseradish peroxidase (HRP)-linked antimouse immunoglobulin G (IgG) antibody (ZSGB-BIO, Beijing, CN) diluted in TBST for 1 h at room temperature. Target proteins were visualized using a chemiluminescence HRP substrate (Millipore, Billerica, USA).\n(§1) Aortic rings were cultured in 48-well plates in 250 μl EBM-2 (1% FBS) media containing anti-VEGF antibody (Santa Cruz, Calif., USA) at a final concentration of 2 ng/ml. The treatment and angiogenesis assay were the same as above."}, "HIF-1": {"test_system": "HIF-1", "test": "Hypoxia-induced activation of HIF-1 in HepG2 cells", "type": "cell-based, human", "text": "There are multiple sites that potentially require copper for activation of HIF-1, including HIF-1α synthesis, stabilization, translocation from cytosol to nucleus, binding to the HRE sequence of target genes, and HIF-1 transcriptional complex formation. We have specifically determined the mechanism of action of copper in regulation of HIF-1 transcriptional activity in human hepatoma HepG2 cells. […] This CCS gene silencing result excludes possible confounding effect on nonspecific chelation by TEPA. […] Therefore, it was concluded that copper is required for HIF-1 activation through regulation of HIF-1α binding to the HRE and the formation of HIF-1 transcriptional complex. Copper deficiency thus suppresses HIF-1 transcriptional activity by FIH-1 depression."}, "[2]": {"test_system": "isolated rat aortic rings", "test": "Isolated rat aortic ring assay for angiogenesis", "type": "cell-based, Sprague Dawley rats", "conditions": "8 days", "text": "Thoracic aortas were removed from 8- to 10-week-old male Sprague Dawley (SD) rats (292-307 g) and immediately transferred to a culture dish containing ice-cold serum-free endothelial basal medium-2 (EBM-2, Lonza Cologne AG). The periaortic fibroadipose tissue was carefully removed with fine microdissecting forceps and iridectomy scissors; paying special attention not to damage the aortic wall. One-millimeter long aortic rings were sectioned and extensively rinsed in five consecutive washes with EBM-2.\nForty-eight well tissue culture grade plates were covered with 100 μl of matrigel (GFR, BD) and allowed to gel for 45 min at 37° C., 5% CO2. Aortic rings were placed on the matrigel-coated wells, covered with an additional 100 μl matrigel and allowed to gel again for 45 min at 37° C., 5% CO2. The culture was then added 250 μl EBM-2 containing 1% fetal bovine serum (FBS). Copper sulfide solution was added to the culture at a final concentration of 5, 25, 50 or 100 μM copper element. The growth media were removed and replaced every 2 days. Aortic rings were photographed on Day 8.\nThe area of angiogenic sprouting was calculated using the Image J software program (NIH, Bethesda, Md.). Microvessel densities are reported in square pixels.\nas §1"}, "[3]": {"conditions": "copper at concentrations above 50 μM"}},
  "note": "Entries after “also recorded” stand apart in the source; their conditions may differ.",
  "data": [
    {"molecule": "c1cc(CN2CCCNCCNCCCNCC2)ccc1CN1CCCNCCNCCCNCC1", "note": "[AMD3100]", "values": [
      {"measurement": "homing of AMD3100 treated BMSCs to Cu-albumin-microbubble treated chronic ischemic area", "setting": "[1]; 6 months after MI surgery, Cu-albumin-microbubble treated", "result": "homing signals could not be observed; also recorded: no BMSCs homing signal"},
      {"measurement": "homing of AMD3100 treated BMSCs to acute cardiac infarct area", "setting": "[1]; within 1 month after MI surgery", "result": "could not home cardiac infarct area; also recorded: significant decrease of BMSCs homing signals"}
    ]},
    {"molecule": "NCCNCCNCCNCCN", "note": "[TEPA, tetraethylenepentamine]", "values": [
      {"measurement": "VEGF levels", "setting": "VEGF; 25 μM TEPA, with or without 5 μM copper", "result": "significantly decreased VEGF levels"},
      {"measurement": "hypoxia-induced activation of HIF-1", "setting": "HIF-1", "result": "suppressed hypoxia-induced activation of HIF-1"},
      {"measurement": "copper promotion of angiogenesis, TEPA with copper", "setting": "[2]; 25 μM TEPA simultaneously with 5 μM copper", "result": "blocked; also recorded: completely suppressed the angiogenic promotion effect of 5 μM copper"},
      {"measurement": "angiogenesis, TEPA alone", "setting": "[2]; 25 μM TEPA", "result": "caused an inhibition of angiogenesis"}
    ]},
    {"molecule": "Copper sulfide", "values": [
      {"measurement": "production of VEGF (protein level)", "setting": "VEGF; 5 μM copper", "result": "did not enhance the production of VEGF"},
      {"measurement": "production of VEGF (protein level)", "setting": "VEGF; [3]", "result": "significantly increased the production of VEGF"},
      {"measurement": "angiogenesis (area of angiogenic sprouting)", "setting": "[2]; 5 μM copper, EBM-2 with 1% FBS", "result": "stimulated the vascular formation; also recorded: strongest promotion effect on the angiogenesis"},
      {"measurement": "angiogenesis (area of angiogenic sprouting)", "setting": "[2]; [3]", "result": "lost the pro-angiogenesis effect; also recorded: significantly inhibitory effect"}
    ]}
  ]
}
